Molecules are shown by their SMILES.

This is an account of results in patent publication US8822449B2, “Substituted aminoindanes and analogs thereof, and the pharmaceutical use thereof” (Sanofi, priority 2008, dated 2014).

In the first experiment the target is T1, sodium-proton exchanger of subtype 3 (NHE3) (Homo sapiens, UniProt P48764).
T1 construct: expressed in transfected cells
T1 sequence (P48764 26-834): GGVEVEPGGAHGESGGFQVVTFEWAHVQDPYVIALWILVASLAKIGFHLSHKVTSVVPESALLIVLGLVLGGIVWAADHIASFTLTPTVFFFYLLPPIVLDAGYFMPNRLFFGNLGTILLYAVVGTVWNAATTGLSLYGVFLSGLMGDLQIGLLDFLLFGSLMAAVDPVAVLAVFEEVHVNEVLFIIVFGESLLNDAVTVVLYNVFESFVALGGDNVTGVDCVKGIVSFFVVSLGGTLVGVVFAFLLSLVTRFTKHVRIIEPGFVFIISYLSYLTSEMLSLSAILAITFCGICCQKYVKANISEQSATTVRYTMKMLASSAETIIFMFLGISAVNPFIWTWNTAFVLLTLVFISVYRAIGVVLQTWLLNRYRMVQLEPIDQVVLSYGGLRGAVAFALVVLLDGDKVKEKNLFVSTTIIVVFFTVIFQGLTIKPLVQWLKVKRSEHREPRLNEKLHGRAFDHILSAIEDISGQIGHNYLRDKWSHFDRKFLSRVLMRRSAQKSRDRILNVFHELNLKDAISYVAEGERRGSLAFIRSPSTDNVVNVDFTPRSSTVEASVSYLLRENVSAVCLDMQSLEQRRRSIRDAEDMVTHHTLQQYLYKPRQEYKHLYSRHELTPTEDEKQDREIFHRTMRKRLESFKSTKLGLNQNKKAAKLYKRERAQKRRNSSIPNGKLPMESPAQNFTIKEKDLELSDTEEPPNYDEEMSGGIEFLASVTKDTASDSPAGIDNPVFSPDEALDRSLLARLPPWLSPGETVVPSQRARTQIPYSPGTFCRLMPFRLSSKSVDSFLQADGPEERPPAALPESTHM
Kind of experiment: Recovery of intracellular pH (pHi) after acidification in LAP1 cells stably expressing NHE3 (BCECF fluorescence, FLIPR). Format: cell-based. The following applies: Activity range (inhibitory effect on NHE3), LAP1 cells stably expressing NHE3; pH recovery after acidification; range 1 is % inhibition at 10 μM.
Regarding `Cc1nncn1-c1ccc(O[C@H]2c3ccccc3C[C@@H]2N2CCCC2)cc1` (racemic) [Example 453, 3-methyl-4-[4-(rac-trans-(1,2)-2-pyrrolidin-1-ylindan-1-yloxy)phenyl]-4H-[1,2,4]triazole], the IC50 was < 1000 nM.

Still in this experiment, the particulars now being: LAP1 cells stably expressing NHE3; pH recovery after acidification; range 1 is % inhibition at 10 μM; read-out: Activity range (inhibitory effect on NHE3).
As for `CN1CC(=O)N(c2ccc(Cl)c(O[C@H]3c4cc(Cl)cc(Cl)c4C[C@@H]3N3CC[C@@H](O)C3)c2)C1=O` [Example 430, 3-{4-chloro-3-[(1S,2S)-4,6-dichloro-2-((R)-3-hydroxypyrrolidin-1-yl)indan-1-yloxy]phenyl}-1-methylimidazolidine-2,4-dione], the IC50 was < 1000 nM. Regarding `CS(=O)(=O)c1ccc(O[C@H]2c3cc(Cl)ccc3C[C@@H]2N2CCNCC2)cc1` (racemic) [Example 289, 1-[rac-trans-(1,2)-6-chloro-1-(4-methanesulfonylphenoxy)indan-2-yl]piperazine], the IC50 is < 1000 nM. For the molecule `Clc1cc(Cl)c2c(c1)[C@H](Oc1ccc(-n3cncn3)cc1)[C@@H](N1CCOCC1)C2` (racemic) [Example 549, 4-[rac-trans-(1,2)-4,6-dichloro-1-(4-[1,2,4]triazol-1-ylphenoxy)indan-2-yl]morpholine], the inhibition at 10 µM fell in the range of 20 to 50%. Same read-out and setting: then `CS(=O)(=O)c1ccccc1O[C@H]1c2cc(Cl)cc(Cl)c2C[C@@H]1N1CCC1` [Example 245, 1-[(1S,2S)-4,6-dichloro-1-(2-methanesulfonylphenoxy)indan-2-yl]azetidine], with 20 to 50%. Regarding `CS(=O)(=O)c1ccc(O[C@@H]2c3cc(Cl)cc(F)c3C[C@H]2N2CCC[C@@H](N)C2)cc1` (racemic) [Example 93, (R)-1-[rac-trans-(1,2)-6-chloro-4-fluoro-1-(4-methanesulfonylphenoxy)indan-2-yl]piperidin-3-ylamine], the IC50 was < 1000 nM. Consider `N[C@H]1CCCN([C@H]2CCc3ccccc3[C@@H]2Oc2ccc(Cl)nc2)C1` (racemic) [Example 190, (S)-1-[rac-trans-(1,2)-1-(6-chloropyridin-3-yloxy)-1,2,3,4-tetrahydronaphthalen-2-yl]piperidin-3-ylamine], for which the inhibition at 10 µM lay within 20 to 50%. Consider `N[C@H]1CCCN([C@@H]2Cc3ccccc3[C@H]2Oc2cccc3ncccc23)C1` (racemic) [Example 194, (S)-1-[rac-trans-(1,2)-1-(quinolin-5-yloxy)indan-2-yl]piperidin-3-ylamine], for which the IC50 is 1000 to 10000 nM. The same measure, in the same setting: then `Cc1cn(-c2ccc(O[C@H]3c4cc(Cl)cc(Cl)c4C[C@@H]3N3CC[C@@H](O)C3)cc2)c(C(C)C)n1` [Example 714, (R)-1-{trans-(1S,2S)-4,6-Dichloro-1-[4-(2-isopropyl-4-methyl-imidazol-1-yl)-phenoxy]-indan-2-yl}-pyrrolidin-3-ol], with 1000 to 10000 nM; and `Cc1nn(C)c(C)c1-c1ccc(O[C@H]2c3cc(Cl)cc(Cl)c3C[C@@H]2N2CC[C@@H](O)C2)cc1` [Example 124, (R)-1-{trans-(1S,2S)-4,6-dichloro-1-[4-(1,3,5-trimethyl-1H-pyrazol-4-yl)phenoxy]indan-2-yl}pyrrolidin-3-ol], with 1000 to 10000 nM; and `Cc1cn(-c2ccc(O[C@H]3c4cc(Cl)cc(F)c4C[C@@H]3N3CC[C@@H](O)C3)c(F)c2)c(C)n1` [Example 738, (R)-1-{trans-(1S,2S)-6-Chloro-1-[4-(2,4-dimethyl-imidazol-1-yl)-2-fluoro-phenoxy]-4-fluoro-indan-2-yl}-pyrrolidin-3-ol], with < 1000 nM. Turning to `N[C@@H]1CCCN([C@H]2CCc3ccccc3[C@@H]2Oc2ccc3oc(=O)sc3c2)C1` (racemic) [Example 578, 5-[rac-trans-(1,2)-2-((R)-3-aminopiperidin-1-yl)-1,2,3,4-tetrahydronaphthalen-1-yloxy]benzo[1,3]oxathiol-2-one], the inhibition at 10 µM lay in the range of 20 to 50%.

Regarding `O=C1CNC(=O)N1c1ccc(F)c(O[C@H]2c3cc(Cl)cc(Cl)c3C[C@@H]2N2CC[C@@H](O)C2)c1` [Example 417, 3-{3-[(1S,2S)-4,6-dichloro-2-((R)-3-hydroxypyrrolidin-1-yl)indan-1-yloxy]-4-fluorophenyl}imidazolidine-2,4-dione], the IC50 lay in the range of 1000 to 10000 nM. Same read-out and setting: the value for `Cc1c(O[C@H]2c3cc(Cl)cc(Cl)c3C[C@@H]2N2CC[C@@H](O)C2)ccc(-n2c(C)nnc2C)c1C` [Example 127, (R)-1-{trans-(1S,2S)-4,6-dichloro-1-[4-(3,5-dimethyl-[1,2,4]triazol-4-yl)-2,3-dimethylphenoxy]indan-2-yl}pyrrolidin-3-ol] was < 1000 nM. As to `N[C@H]1CCCN([C@H]2CCc3ccccc3[C@@H]2Oc2ccc(F)cc2-c2ccno2)C1` (racemic) [Example 178, (S)-1-[rac-trans-(1,2)-1-(4-fluoro-2-isoxazol-5-ylphenoxy)-1,2,3,4-tetrahydronaphthalen-2-yl]piperidin-3-ylamine], the inhibition at 10 µM lay within 20 to 50%. With `Cc1nnc(C)n1-c1ccc(O[C@H]2c3ccccc3C(C)(C)[C@@H]2N2CCCC2)cc1` (racemic) [Example 497, 4-[4-(rac-trans-(1,2)-3,3-dimethyl-2-pyrrolidin-1-ylindan-1-yloxy)phenyl]-3,5-dimethyl-4H-[1,2,4]triazole], the inhibition at 10 µM is 20 to 50%. In the case of `O=C1CCC(=O)N1c1ccc(O[C@H]2c3cc(Cl)cc(Cl)c3C[C@@H]2N2CC[C@@H](O)C2)c(Cl)c1` [Example 322, 1-{3-chloro-4-[(1S,2S)-4,6-dichloro-2-((R)-3-hydroxypyrrolidin-1-yl)indan-1-yloxy]phenyl}pyrrolidine-2,5-dione], the IC50 is < 1000 nM. Regarding `NS(=O)(=O)c1ccc(O[C@H]2c3ccccc3C[C@@H]2N2CC[C@@H](CO)C2)cc1` (racemic) [Example 526, 4-[rac-trans-(1,2)-2-((R)-3-Hydroxymethylpyrrolidin-1-yl)indan-1-yloxy]benzenesulfonamide], the IC50 was in the range of 1000 to 10000 nM. As to `N#Cc1ccc(-c2ccc(O[C@H]3c4ccccc4CC[C@@H]3N3CCC[C@@H](N)C3)cc2)cc1` (racemic) [Example 517, 4′-[rac-trans-(1,2)-2-((R)-3-aminopiperidin-1-yl)-1,2,3,4-tetrahydronaphthalen-1-yloxy]-biphenyl-4-carbonitrile], the inhibition at 10 µM lay within 20 to 50%. `CC(C)c1nccn1-c1ccc(O[C@H]2c3cc(Cl)cc(Cl)c3C[C@@H]2N2CC[C@@H](O)C2)cc1` [Example 732, (R)-1-{trans-(1S,2S)-4,6-Dichloro-1-[4-(2-isopropyl-imidazol-1-yl)-phenoxy]-indan-2-yl}-pyrrolidin-3-ol]: the IC50 lay within 1000 to 10000 nM. With `N#Cc1ccc(O[C@H]2c3ccccc3CC[C@@H]2N2CCC[C@@H](N)C2)c(F)c1F` (racemic) [Example 509, 4-[rac-trans-(1,2)-2-((R)-3-aminopiperidin-1-yl)-1,2,3,4-tetrahydronaphthalen-1-yloxy]-2,3-difluorobenzonitrile], the IC50 lay in the range of 1000 to 10000 nM. Turning to `Cc1nc(C)c(-c2ccc(O[C@H]3c4cc(Cl)cc(Cl)c4C[C@@H]3N3CC[C@@H](O)C3)cc2)s1` [Example 125, (R)-1-{trans-(1S,2S)-4,6-dichloro-1-[4-(2,4-dimethyl-thiazol-5-yl)phenoxy]indan-2-yl}pyrrolidin-3-ol], the inhibition at 10 µM is 20 to 50%. As to `O=S1(=O)CCCN1c1cccc(O[C@H]2c3cc(Cl)cc(Cl)c3C[C@@H]2N2CC[C@@H](O)C2)c1` [Example 123, (R)-1-{trans-(1S,2S)-4,6-dichloro-1-[3-(1,1-dioxo-1lambda6-isothiazolidin-2-yl)phenoxy]indan-2-yl}pyrrolidin-3-ol], the IC50 was 1000 to 10000 nM. For `COCCc1ccc(O[C@@H]2c3ccccc3C[C@H]2N2CCC(CN)C2)cc1` (mixture of isomers) [Example 598, C-(1-{rac-trans-(1,2)-1-[4-(2-methoxyethyl)phenoxy]indan-2-yl}pyrrolidin-3-yl)methylamine], the IC50 is 1000 to 10000 nM.

Turning to `CS(=O)(=O)c1ccc(O[C@H]2c3cccc(F)c3C[C@@H]2N2CCCC2)cc1` (racemic) [Example 285, 1-[rac-trans-(1,2)-4-fluoro-1-(4-methanesulfonylphenoxy)indan-2-yl]pyrrolidine], the IC50 was 1000 to 10000 nM. On to `N#Cc1ccc(O[C@H]2c3cc(Cl)cc(Cl)c3C[C@@H]2N2CCC2)c(F)c1` [Example 454, 4-((1S,2S)-2-azetidin-1-yl-4,6-dichloroindan-1-yloxy)-3-fluorobenzonitrile], for which the inhibition at 10 µM lay in the range of 20 to 50%. For `CS(=O)(=O)c1ccc(O[C@H]2c3cc(Cl)cc(Cl)c3C[C@@H]2N2CCCNCC2)c(Cl)c1` [Example 295, 1-[trans-(1S,2S)-4,6-dichloro-1-(2-chloro-4-methanesulfonylphenoxy)indan-2-yl]-[1,4]diazepane], the IC50 was < 1000 nM. As for `N#Cc1cc(Br)ccc1O[C@H]1c2ccccc2CC[C@@H]1N1CCC[C@@H](N)C1` (racemic) [Example 369, 2-[rac-trans-(1,2)-2-((S)-3-aminopiperidin-1-yl)-1,2,3,4-tetrahydronaphthalen-1-yloxy]-5-bromobenzonitrile], the inhibition at 10 µM lay within 20 to 50%.
